Test results: patent publication US5707815A, “Mammalian monocyte chemoattractant protein receptors and assays using them” (Regents of the University of California, priority 1995, dated 1998)
Read-outs that look alike come from different tables or passages of the source.

B1: macrophage inhibitory protein-1 [MIP-1β] (protein, UniProt P13236 24-92, looked up)
C-C motif chemokine 4: APMGSDPPTACCFSYTARKLPRNFVVDYYETSSLCSQPAVVFQTKRSKQVCADPSESWVQEYVYDLELN
notes: C--C chemokine, obtained from R&D

What was measured:
MCP-1RB receptor [1] = format: cell-based, human; conditions: for IC50: Table I, read-out: Inhibition of Adenylyl Cyclase IC50 (nM) MCP-1RB; for activation of the MCP-1 receptor in the adenylyl cyclase assay: high concentrations
Description: (§1) To investigate inhibition of adenylyl cyclase activity, HEK-293 cells stably-transfected with the MCP-1RB receptor and the MIP-1α/RANTES receptor were grown until confluent in 24-well tissue culture dishes and labeled overnight with 2 μCi/ml of [^3 H]adenine (25-30 Ci/mmol) (New England Nuclear, Boston, Mass.) in MEM-EBSS supplemented with 10% FCS. The next day, the cells were washed by incubation at room temperature with 0.5 ml of serum-free MEM-EBSS media supplemented with 10 mM HEPES, 1 mg/ml BSA, and 1 mM IBMX (3-isobutyl-1-methylxanthine) for 5 min. […] The incubation was terminated by replacement of the media with 1 ml of ice-cold 5% TCA (trichloroacetic acid), 1 mM cAMP, and 1 mM ATP (Sigma). Following incubation at 4° C. for 30 min, the labeled [^3 H]ATP and [3H]cAMP pools were separated and quantitated by chromatography on Dowex 50W (200-400 mesh, hydrogen form, from Sigma) and neutral alumina columns (also from Sigma), as described in Hung, J. Biol. Chem. 267:20831-34 (1992) and Wong, Nature 351: 63-65 (1991). The 1 ml acid supernatant was loaded onto a 1-ml Dowex 50W column and the ATP pool eluted with 3 ml of H2 O. The Dowex 50W columns were then placed over 1-ml alumina columns, and 10 ml of H2 O was added to the Dowex resin and the eluant allowed to drop directly onto the neutral alumina. The cAMP pool was then eluted directly from the alumina with 5 ml of 0.1M imidazole/0.01mM sodium azide. The [^3 H]ATP and [^3 H]cAMP fractions were counted by liquid scintillation spectroscopy. The cAMP pool for each sample was normalized to its own ATP pool and expressed as a ratio by the equation (cAMP cpms/ATP cpms)×100. In each experiment full dose-response curves were generated and expressed as a percent of the forskolin control.
(§2) Inhibition of MCP-1RB receptor activation by bordetella pertussis toxin was investigated. Pertussis toxin (List Biological Labs, Inc., Campbell, Calif.) was dissolved in 0.01M sodium phosphate, pH 7.0, 0.05M sodium chloride and diluted into normal serum containing media at final concentrations of 0.1 ng/ml to 100 ng/ml, and incubated with cells overnight (14-16 h) at 37° C. The conditions of the Pertussis toxin treatment of the 293 cells were identical for calcium fluorimetric and adenylyl cyclase experiments. In the adenylyl cyclase experiments, the Pertussis toxin was added at the same time as [^3 H]adenine.
(§3) Dose response curves generated in the calcium fluorimetric and adenylyl cyclase inhibition assays were fit by a nonlinear least squares program to the logistic equation:
(§4) Effect=max effect/[1+(EC50 /(agonist)^n)]
(§5) where n and EC50 represent the Hill coefficient and the agonist concentration that elicited a half-maximal response, respectively, and were derived from the fitted curve. Curve fitting was done with the computer program "Prism" (by Graph Pad, San Diego, Calif.). Results represent the mean ±SE. The 95% confidence intervals (CI) of the EC50 and IC50 values, when given, were calculated from the log EC50 and IC50 values, respectively.

MIP-1α/RANTES receptor = test: Inhibition of adenylyl cyclase (cAMP accumulation) in HEK-293 cells stably transfected with MIP-1α/RANTES receptor; format: cell-based; conditions: for activation of the MIP-1α/RANTES receptor: at up to 1 μM
Description: as §1
In similar experiments the MIP-1α/RANTES receptor was stably transfected into 293 cells and also found to mediate potent and dose-dependent inhibition of adenylyl cyclase activity. Unlike the MCP-1RB receptor, however, the MIP-1α/RANTES receptor was activated by multiple chemokines with varying degrees of potency.
as §3, §4, §5

MCP-1RB receptor [2] = test: Intracellular calcium mobilization (indo-1) in stably transfected MCP-1RB/293 cells; format: cell-based, human; conditions: for block of stimulation of the cells by MCP-1 / stimulation of calcium signals: MCP-1RB/293 cells; for stimulation of calcium signals: high concentrations
Description: Calcium mobilization in 293 cells was then investigated. Transfected HEK-293 cells were grown until confluent, trypsinized briefly, washed with phosphate buffered saline containing 1 mg/ml BSA (PBS-BSA), and resuspended in serum-free MEM-EBSS supplemented with 1 mg/ml BSA and 10 mM HEPES (pH 7.0) at a density of 2×10^7 cells/ml. The cells were incubated in the dark at 37° C. for 20 min in the presence of 5-10 μg/ml indo-1 AM (Molecular Probes, Inc., Eugene, Oreg.). Nine volumes of PGS-BSA were added, and the cells were incubated for an additional 10 min at 37° C., pelleted by centrifugation, and washed twice with 50 ml of the PBS-BSA solution. Washed, indo-1-loaded cells were then resuspended in Hank's Balanced Salt Solution (1.3 mM Ca^2+) supplemented with 1 mg/ml BSA (HBS-BSA) at a density of approximately 0.5×10^6 cells/ml at room temperature. To measure intracellular calcium ([Ca^2+ ]i), 0.5 ml of the cell suspension was placed in a quartz cuvette in a Hitachi F-2000 fluorescence spectrophotometer. […] Intracellular calcium was measured by excitation at 350 nm and fluorescence emission detection at 490 nm (F1) and 410 nm (F2) wavelengths. The [Ca^2+ ]i was estimated by comparing the 490/410 fluorescence ratio after agonist application (R) to that of calibration ratios measured at the end of each run, according to the equation:
[Ca^2+ ]i =Kd ×[(R--Rmin)/(Rmax
where Rmax and Rmin represent the fluorescence ratio under saturating (1.3 mM Ca^2+) and nominally free (10 mM EGTA, Sigma Chemical Co.) calcium conditions, Kd is the dissociation constant of calcium for indo-1, R is the fluorescence ratio, and Sf2/Sb2 is the fluorescence ratio of free and bound indo-1 dye at 410 nm. See Thomas, AP and Delaville, F (1991) in Cellular Calcium, a Practical Approach, Oxford Univ. Press, pp. 1-54.
To quantirate calcium responses, MCP-1 dose response curves were generated in each experiment and the results were expressed as a percent of the maximum calcium signal (at 300 nM MCP-1) measured in that experiment. The changes in [Ca^2+ ]i levels in response to each concentration of agonist were determined by subtracting the baseline from peak [Ca^2+ ]i levels, which were determined by averaging 5 seconds of data prior to agonist addition and surrounding the peak response, respectively. In experiments done to determine the role of extracellular calcium, 3 mM EGTA was added 60-90 seconds prior to MCP-1. […] All experiments were performed at room temperature.
as §2, §3, §4, §5

MM6 cells = test: MCP-1 induced calcium flux in MM6 cells (calcium efflux assay); format: cell-based, human; conditions: label = chemokine given first, MCP-1 versus RANTES (or MIP-1α)
Description: Because monocytes are difficult to isolate in usable quantity and express less than 2000 high affinity MCP-1 binding sites per cell, a cultured cell line that responded well to MCP-1 had to be identified. Using the calcium effiux assay as described in Vu, Cell 64:1057-68(1991), MCP-1 induced calcium fluxes in various cell lines were measured. […] In contrast, a dose-dependent calcium flux was detected in MM6 cells, with half maximal stimulation at 4nM MCP-1.

MCP-1RA = test: Ca45 efflux assay in Xenopus oocytes injected with MCP-1RA cRNA; format: cell-based, human; conditions: ligand at 500 nM
Description: (§6) The calcium efflux assay was performed to confirm expression of functional MCP-1R protein and to determine whether the MCP-1 receptors A and B conferred responsiveness to MCP-1 or other chemokines. In this assay, MCP-1RA and 1RB cRNA was microinjected into Xenopus oocytes and receptor signaling activities measured by detection of agohist-induced calcium mobilization.
(§7) As described in Vu, Cell 64:1057-68(1991), cRNA was prepared by SP6 RNA polymerase transcription from a NotI linearized vector and run on an agarose gel to confirm a single band of the expected size. One day after harvesting, oocytes were injected with 20 ng of cRNA in a total volume of 50 nl per oocyte. After incubation in modified Barth's buffer for 2 days at 16° C., the oocytes were loaded with Ca^45 (50 uCi/ml, Amersham, Arlington Heights, Va.) for 3 hours, washed for one hour, and placed into wells of a 24-well dish in groups of seven, in a volume of 0.5 ml Ca^45 efflux was determined by collecting the media at 10 minute intervals and counting beta emissions in a liquid scintillation counter. […] Uninjected oocytes were used as controls.

MCP-1RB = test: Ca45 efflux assay in Xenopus oocytes injected with MCP-1RB cRNA; format: cell-based, human; conditions: ligand at 500 nM
Description: as §6, §7

MCP-1RB receptor [3] = test: Equilibrium binding of 125I-MCP-1 to MCP-1RB expressing HEK-293 cells; parameters: species or system human; conditions: unlabeled chemokine, 500 pM 125I-labeled MCP-1
Description: Equilibrium binding assays were then performed using the method of Ernst, J. Immunol. 152:3541-49 (1994). […] Competition experiments were performed using 500 pM ^125 I-labeled MCP-1 and the concentrations of unlabeled chemokines as indicated in FIG. 7A-B.
Equilibrium binding data were analyzed according to the method of Scatchard using the program "LIGAND" (Biosoft, Ferguson, Mo.) on a Macintosh computer. See Munson, Anal. Biochem. 107: 220-39 (1980).

[4] = MIP-1α/RANTES receptor, read-out: IC50 for inhibition of adenylyl cyclase
[5] = pretreatment overnight, 0.1 to 100 ng/ml

Row | Molecule | IC50 (MCP-1RB receptor [1]) [nM] | activation of the MCP-1 receptor in the adenylyl cyclase assay (MCP-1RB receptor [1]) | block of stimulation of the cells by MCP-1 (MCP-1RB receptor [2]) | stimulation of calcium signals (MCP-1RB receptor [2]) | calcium efflux response elicited (MCP-1RA) | calcium efflux response elicited (MCP-1RB) | competition for 125I-MCP-1 binding (MCP-1RB receptor [3]) | other results
1 | C=C[C@@]1(C)CC(=O)[C@]2(O)[C@@]3(C)[C@@H](O)CCC(C)(C)[C@@H]3[C@H](O)[C@H](OC(C)=O)[C@@]2(C)O1 [Forskolin, forskolin, reference compound] | – | – | – | – | – | – | – | increase of cAMP levels (MCP-1RB receptor [1]; hek-293 cells, 20 min, 10 µM): 16 fold
2 | Gro-α: C-X-C chemokine | > 1000 | Virtually no activation | failed to block | failed to stimulate significant calcium signals | – | – | – | IC50 (MIP-1α/RANTES receptor; Table I, read-out: Inhibition of Adenylyl Cyclase IC50 (nM) MIP-1α/RANTES R): > 1000 nM; activation of the MIP-1α/RANTES receptor (MIP-1α/RANTES receptor): did not activate
3 | RANTES: C--C chemokine, obtained from R&D | > 1000 | Virtually no activation | failed to block | failed to stimulate significant calcium signals | no response | No response | did not compete for binding | effect of prior exposure to the chemokine on the calcium response to the other chemokine (MM6 cells): could not be ablated; IC50 (MIP-1α/RANTES receptor; [4]): ~0.1 nM
4 | interleukin-8 [IL-8] | – | Virtually no activation | failed to block | failed to stimulate significant calcium signals | No response | No response | – | calcium efflux response elicited (MCP-1RA; listed as Il-8): no response; activation of the MIP-1α/RANTES receptor (MIP-1α/RANTES receptor): did not activate
5 | macrophage inhibitory protein-1 [MIP-1α] | > 1000 | Virtually no activation | failed to block | failed to stimulate significant calcium signals | no response | No response | did not compete for binding | IC50 (MIP-1α/RANTES receptor; [4]): ~0.1 nM
6 | pertussis toxin [reference compound] | – | – | – | – | – | – | – | component resistant to inhibition (MCP-1RB receptor [1]; adenylyl cyclase inhibition, up to 100 ng/ml of PT): ≈ 20%; shift of the MCP-1 IC50 for cAMP accumulation (MCP-1RB receptor [1]; pertussis toxin treatment): without significantly shifting; block of MCP-1 inhibition of adenylyl cyclase (MCP-1RB receptor [1]; [5]): substantially blocked; component resistant to inhibition (MCP-1RB receptor [2]; calcium mobilization, up to 100 ng/ml of PT): ≈ 20%; block of MCP-1-induced mobilization of intracellular calcium (MCP-1RB receptor [2]; [5]): substantially blocked
7 | B1 | > 1000 | Virtually no activation | failed to block | failed to stimulate significant calcium signals | no response | No response | did not compete for binding | –
